Experimental findings from patent publication US7439263B2, “Pyrrolidine and thiazolidine compounds” (Les Laboratoires Servier, priority 2004, dated 2008) are described below.

For orientation: IC50 means the concentration at which inhibition is half-maximal. A higher IC50 goes with lower potency.

Structures can show the parent of a compound that is named as a salt.

T1 sequence (P22411 whole entry): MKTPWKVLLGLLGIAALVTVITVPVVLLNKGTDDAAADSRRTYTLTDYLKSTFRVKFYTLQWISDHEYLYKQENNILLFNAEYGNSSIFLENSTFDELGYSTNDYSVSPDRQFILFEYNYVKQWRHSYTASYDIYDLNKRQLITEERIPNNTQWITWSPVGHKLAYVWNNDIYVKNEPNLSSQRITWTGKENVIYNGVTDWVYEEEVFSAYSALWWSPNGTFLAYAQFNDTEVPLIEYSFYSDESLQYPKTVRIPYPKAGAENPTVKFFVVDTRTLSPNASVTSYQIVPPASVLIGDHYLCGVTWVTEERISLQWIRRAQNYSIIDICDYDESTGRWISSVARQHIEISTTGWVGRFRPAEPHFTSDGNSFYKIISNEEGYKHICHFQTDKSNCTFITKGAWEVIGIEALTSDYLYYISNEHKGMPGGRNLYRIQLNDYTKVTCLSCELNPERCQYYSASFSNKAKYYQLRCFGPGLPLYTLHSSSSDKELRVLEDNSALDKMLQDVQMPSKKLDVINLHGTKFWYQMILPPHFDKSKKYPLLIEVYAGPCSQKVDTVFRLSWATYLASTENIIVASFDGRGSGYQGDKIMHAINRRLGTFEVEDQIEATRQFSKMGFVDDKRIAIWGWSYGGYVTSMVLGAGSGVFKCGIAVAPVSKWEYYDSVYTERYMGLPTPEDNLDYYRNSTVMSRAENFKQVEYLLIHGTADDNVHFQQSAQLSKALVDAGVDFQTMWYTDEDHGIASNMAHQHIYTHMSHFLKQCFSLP

This experiment addresses T1, Dipeptidyl-Peptidase IV (DPP IV) (Sus scrofa, UniProt P22411).
T1 construct: using 10 μl of the pig kidney preparation; from tissue; host or cells: pig kidney membrane fraction, solubilised with n-octyl-β-glucopyranoside
The experiment can be described thus: Inhibition of dipeptidyl-peptidase IV in pig kidney (Gly-Pro-pNA cleavage, absorbance at 405 nm). The format is biochemical. The note with it: pig kidney membrane preparation; substrate Gly-Pro-pNA; 60 min at 37° C.; geometric mean of the IC50s. As to the method:
Inhibition of Dipeptidyl-Peptidase IV in Pig Kidney
Preparation of the Membrane Fraction of Pig Kidney
Pig kidney tissue (large white pig, 2 to 3 months' old) was homogenised (5 g of tissue in 15 ml of Tris buffer (114 mM, pH 7.8-8)) and then centrifuged at 150000×g for 30 min. at 4° C. The pellet was taken up in 15 ml of buffer and re-centrifuged at 150000×g for 30 min. at 4° C. With stirring, the resulting pellet was dissolved in 15 ml of buffer with 60 mM n-octyl-β-glucopyranoside for 30 min. at ambient temperature. After centrifugation at 150000×g for 30 min. at 4° C., the supernatant was dialysed (MWCO 12-14000) against 114 mM Tris pH 7.8-8, and then divided into aliquots at —80° C.
Measurement of Dipetidyl Peptidase IV (DPP IV) Activity
The enzymatic activity is measured by cleavage of a chromogenic substrate, glycyl-prolyl-p-nitroanilide (Gly-Pro-pNA), giving Gly-Pro and pNA (p-nitroaniline); the latter is detected by absorbance at 405 nm. The activity is measured in the absence (control) or in the presence of 10 μl of the inhibitors, using 10 μl of the pig kidney preparation (0.81 mU, 1U=1 μmol of pNA product/min. at 37° C.). Incubation is started by adding the substrate (250 μl), dissolved in Tris buffer (114 mM) pH 7.8-8, over a period of 60 min. at 37° C. […] The results were expressed as a percentage of the control, and the IC50 values (effective dose for 50% inhibition of the control activity) were determined using non-linear analysis between 0 and 100%, (GraphPad Prism version 4.01 for Windows). Each measurement was carried out in quadruplicate and each IC50 determination was carried out from 1 to 5 times.
The results obtained (geometric mean of the IC50s) for the compounds representing the invention are compiled in the following Table: […]
Turning to `N#C[C@@H]1CCCN1C(=O)CNC1(CO)CCC2(CCOCC2)CC1` [Example 1, (2S)-1-({[9-(Hydroxymethyl)-3-oxaspiro[5.5]undec-9-yl]amino}-acetyl)-2-pyrrolidinecarbonitrile], the IC50 was 76.1 nM.
The same measure for `N#C[C@@H]1CCCN1C(=O)CNC1(CO)CCC2(CCCCC2)CC1` [Example 5, (2S)-1-({[3-(Hydroxymethyl)spiro[5.5]undec-3-yl]amino}acetyl)-2-pyrrolidinecarbonitrile]: 68.5 nM; for `N#C[C@@H]1CCCN1C(=O)CNC1CCC2(CCCCCCC2)CC1` [Example 6, (2S)-1-[(Spiro[5.7]tridec-3-ylamino)acetyl]-2-pyrrolidinecarbonitrile hydrochloride]: 27.2 nM; for `N#C[C@@H]1CCCN1C(=O)CNC1CCC2(CC1)CCC1(CCCCC1)CC2` [Example 8, (2S)-1-[(Dispiro[5.2.5.2]hexadec-3-ylamino)acetyl]-2-pyrrolidine-carbonitrile]: 23 nM.
Take `N#C[C@@H]1CCCN1C(=O)CNC1(CO)CC2(CCCC2)C1` [Example 17, (2S)-1-({[2-(Hydroxymethyl)spiro[3.4]oct-2-yl]amino}acetyl)-2-pyrrolidinecarbonitrile hydrochloride]: it took 43.6 nM to reach half-maximal inhibition (IC50).
Next, `N#C[C@@H]1CSCN1C(=O)CNC1CCC2(CCCCC2)CC1` [Example 18, (4R)-3-[(Spiro[5.5]undec-3-yl-amino)acetyl]-1,3-thiazolidine-4-carbonitrile trifluoroacetate]: 3.5 nM; `N#C[C@@H]1CCCN1C(=O)CNC1CCC2(CCNCC2)CC1` [Example 20, (2S)-1-[(3-Azaspiro[5.5]undec-9-ylamino)acetyl]-2-pyrrolidine-carbonitrile bis(trifluoroacetate)]: 73.1 nM.
Regarding `N#C[C@@H]1CCCN1C(=O)CNC1CCC2(CCSCC2)CC1` [Example 23, (2S)-1-[(3-Thiaspiro[5.5]undec-9-ylamino)acetyl]-2-pyrrolidine-carbonitrile hydrochloride], half-maximal inhibition (IC50) required 27 nM.
Next, `N#C[C@@H]1CCCN1C(=O)CNC1CCC2(CC1)CC2` [Example 28, (2S)-1-[(Spiro[2.5]oct-6-ylamino)acetyl]-2-pyrrolidinecarbonitrile]: 171 nM.
Compound `N#C[C@@H]1C[C@H](F)CN1C(=O)CNC1(CO)CCC2(CCOCC2)CC1` [Example 29, (2S,4S)4-Fluoro-1-({[9-(hydroxymethyl)-3-oxaspiro[5.5]undec-9-yl]-amino}acetyl)-2-pyrrolidinecarbonitrile] gave an IC50 of 31.6 nM.
`N#C[C@@H]1CC(F)(F)CN1C(=O)CNC1(CO)CCC2(CCOCC2)CC1` [Example 30, (2S)-4,4-Difluoro-1-({[9-(hydroxymethyl)-3-oxaspiro[5.5]undec-9-yl]amino}acetyl)-2-pyrrolidinecarbonitrile] had an IC50 of 20.5 nM.
